Consider 2 compounds from US20200247815A1, “PYRAZOLYL-CONTAINING TRICYCLIC DERIVATIVE, PREPARATION METHOD THEREFOR AND USE THEREOF” (Jiangsu Hansoh Pharmaceutical Group Co., Ltd., priority 2017, published 2020).

One data set has as its target T1, ERK-1 kinase (Homo sapiens, UniProt P27361).
T1 construct: purchased Invitrogen PV3311
Kind of data set: Inhibition of ERK-1 kinase activity (LANCE Ultra TR-FRET). In kind it is biochemical. The conditions noted are these: ERK1 enzyme 0.4 nM, ATP 38.15 μM. The procedure, abridged: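 Reactions contained 0.4 nM ERK1, 0.5 μM Ulight-MBP peptide and 38.15 μM ATP in pH 7.4 Hepes/MgCl2 buffer with 4% DMSO and ran 60 minutes at room temperature. Detection used Eu-anti-p-MBP with a 665/615 nm TR-FRET ratio, normalised to DMSO and no-enzyme controls. Final concentrations were 100 nM to 0.005 nM, and IC50 came from a 4-parameter fit.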
(In TR-FRET formats the signal depends on donor and acceptor labels being close together.)

For the next data set, the target named is T2, ERK-2 kinase (Homo sapiens, UniProt P28482).
T2 construct: purchased Invitrogen PV3313
T2 sequence (P28482 whole entry): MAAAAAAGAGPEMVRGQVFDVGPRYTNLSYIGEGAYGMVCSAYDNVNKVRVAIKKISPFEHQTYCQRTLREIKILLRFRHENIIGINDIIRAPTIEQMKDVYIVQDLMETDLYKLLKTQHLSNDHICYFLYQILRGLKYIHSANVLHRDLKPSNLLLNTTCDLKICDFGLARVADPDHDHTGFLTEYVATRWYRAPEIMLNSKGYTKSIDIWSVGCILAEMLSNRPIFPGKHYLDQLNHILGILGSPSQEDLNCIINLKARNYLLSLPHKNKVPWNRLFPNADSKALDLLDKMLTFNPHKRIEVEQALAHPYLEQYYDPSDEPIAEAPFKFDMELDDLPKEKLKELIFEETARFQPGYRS
Kind of data set: Inhibition of ERK-2 kinase activity (LANCE Ultra TR-FRET). The data set is classed as biochemical. The conditions noted are these: ERK-2 enzyme 0.08 nM, ATP 38.15 μM. The procedure, abridged:
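Recombinant ERK-2 (0.08 nM) with ULight-MBP peptide (0.5 μM) and ATP (38.15 μM) in Hepes pH 7.4 buffer, compound 100 nM to 0.005 nM final, 4% DMSO, 60 min at room temperature. Eu-anti-p-MBP TR-FRET (665/615 nm) read after EDTA stop; % inhibition versus DMSO and no-enzyme controls fitted 4-parameter for Abs_IC50.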

A short description of data set [1]: Pharmacokinetics assay in mice (oral, plasma). In kind it is in vivo, Balb/c Mouse. How it is done: Balb/c Mouse was used as the test animal. The pharmacokinetic behavior of compounds of Example 1, 2 and 7 administrated orally was studied in mice (plasma).
170 g of PEG400 and 20 g of Solutol HS-15 were added to a 250 mL glass flask, and then 10 mL of NMP was added. The solution was mixed well by ultrasound for 10 minutes to obtain a clear solution.
11.2 mg of the compound of Example 1, 10.8 mg of the compound of Example 2 and 9.8 mg of the compound of Example 7 were weighted to a 4 mL glass flasks respectively, […], 2.160 mL and […] of the above solution were treated by ultrasound for 10 minutes to obtain a colorless clear solution with a concentration of 5 mg/mL.
After fasting overnight, the male Balb/c mice were administrated with the compounds (PO), the dose was 50 mg/kg, and the administration volume was 10 mL/kg.
Blood was taken before administration and at 0.25, 0.5, 1, 2, 4, 6, 8 and 24 hours after administration. The blood samples were stored in EDTA-2K tubes, and centrifuged for 6 minutes to separate the blood plasma. The plasma samples were stored at −80° C.

For data set [2], the system named is human pancreatic cancer cell MiaPaca 2 xenograft (CDX) model. Kind of data set: Tumor inhibition experiment in MiaPaca 2 xenograft model. In kind it is in vivo, BALB/c nude mice. How it is done: BALB/c nude mice were used as test animals. In vivo pharmacodynamic test was carried out in human pancreatic cancer cell MiaPaca 2 xenograft (CDX) model to evaluate the antitumor effect of the test compound.
MiaPaca 2 cells were obtained from the cell bank. After recovery, the cells were added to a DMEM medium (containing 10% FBS, 1% Glu and 1% P/S), and incubated in the CO2 incubator (the incubator temperature was 37° C., and the CO2 concentration was 5%). The cells were subjected to passage after spreading 80-90% of the bottom of the culture flask. After passage, the cells were incubated in the CO2 incubator. This process was repeated until the number of cells met the required by in vivo pharmacological inoculation. Cells in log phase were collected, and counted by the automatic cell counter. The cells were re-suspended with PBS and Matrigel (1:1 by volume) based on the counting results to obtain a cell suspension (cell density: […]), which was placed in an ice box.
Female BALB/c nude mice (6-8 weeks old, body weight: 18-22 grams) were used as test animals. The mice were maintained in individually ventilated cages (5 mice per cage) in a special pathogen-free environment. All cages, padding and water were disinfected before use. All animals had free access to standard certified commercial laboratory diets. The nude mice were labeled with disposable ear tags before the experiment. The skin of the inoculated area was sterilized with 75% medical alcohol before inoculation. Each mouse was subcutaneously inoculated with 0.1 ml (containing 8*10^6 cells) of MiaPaca 2 tumor cells on the right back. Administration was started when the average tumor volume reached 100-200 mm^3. The test compound was administrated intragastrically daily. The tumor volume (mm^3) was measured with vernier caliper twice a week. Calculation formula: V=0.5*D*d*d, wherein D and d refer to the major and minor diameter of the tumor, respectively. The anti-tumor efficacy was determined by dividing the average tumor increase volume of compound-treated animals by the average tumor increase volume of untreated animals. Calculation formula of tumor inhibition rate: TGI (%)=1−[(Vt−V0)administration group/(Vt−V0)solvent control group]*100%. All animals were euthanized after the experiment.

Data set [3] in a line: Solubility (statement, no method). The data set is classed as physicochemical.
The conditions of data set [4]: conventional solvents, background statement; cited from earlier work.
[5] abbreviates: mouse, male Balb/c mice, PO 50 mg/kg, plasma.
The mark [6] stands for this setting: 100 mg/kg QD × 3 w, intragastric, Day 21.

T1 sequence (P27361 whole entry): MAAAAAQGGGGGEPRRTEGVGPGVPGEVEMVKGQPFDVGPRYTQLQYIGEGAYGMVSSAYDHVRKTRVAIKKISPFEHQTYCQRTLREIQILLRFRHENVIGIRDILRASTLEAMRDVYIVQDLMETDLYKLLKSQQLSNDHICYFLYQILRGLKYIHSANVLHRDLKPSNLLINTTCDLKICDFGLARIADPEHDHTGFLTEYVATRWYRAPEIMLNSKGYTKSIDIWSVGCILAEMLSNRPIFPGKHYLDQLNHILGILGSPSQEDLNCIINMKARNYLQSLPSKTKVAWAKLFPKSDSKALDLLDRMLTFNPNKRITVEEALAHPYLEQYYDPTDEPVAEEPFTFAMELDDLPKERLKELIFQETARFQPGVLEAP

For orientation: IC50 means the point on the concentration scale where inhibition reaches its midpoint. Broadly, the Cmax is the highest concentration seen after dosing. For orientation: MRT means the average time that molecules of a dose stay in the body. As usually defined, the Tmax is the time at which the peak concentration occurs. The half-life is the time in which the quantity being followed falls by half. A low value points to fast loss. Take `C[C@@H](NC(=O)c1nc2cc3c(-c4ccncc4)n[nH]c3cc2[nH]1)c1ccc(F)cc1` [Example 7, (R)—N-(1-(4-fluorophenyl)ethyl)-3-(pyridin-4-yl)-1,7-dihydroimidazo[4,5-f]indazole-6-carboxamide]: the IC50 at ERK-1 kinase came out at 410 pM. Besides, at ERK-2 kinase, the IC50 came out at 180 pM. For the same compound, in data set [1] (dose of 50 mg/kg, oral), the “Exposure in mouse plasma” value is “good exposure”. Further, in data set [1] (setting [5]), the Cmax amounted to 8260 ng/mL, the MRT turned out to be 2.33 h, the Tmax amounted to 1 h and the half-life was 0.83 h. The AUC(0-t) in data set [1] (mouse, male Balb/c mice, PO 50 mg/kg, plasma, read-out: AUC0-24) came out at 27300 ng·h/mL. Also, the “Tumor volume (Mean ± SD) Day 0” value in data set [2] (100 mg/kg QD × 3 w, intragastric, Day 0) was 156 ± 33 mm^3. Also, in data set [2] (setting [6]), the “TGI Day 21” value stood at 58.3%, the “Tumor volume (Mean ± SD) Day 21” value is on record as 426 ± 205 mm^3 and the “ΔT/ΔC Day 21” value was 41.63%. Also, the “Inhibition of growth of xenograft” value in data set [2] (100 mg/kg QD, continuous oral administration for 21 days) was “significantly inhibit the growth”. Further, in data set [3], the “Solubility compared with ERK compounds of the prior art” value was “higher solubility”.
Take `O=C1Nc2cc3[nH]nc(-c4ccncc4)c3cc2CN1Cc1ccccc1` [KO-947]: the “Solubility” value in data set [4] is reported as “poor solubility”.
